According to ChEMBL document CHEMBL5518188, “Discovery of 4-amino-1,6-dihydro-7H-pyrrolo[2,3-d]pyridazin-7-one derivatives as potential receptor-interacting serine/threonine-protein kinase 1 (RIPK1) inhibitors” (Eur J Med Chem, 2024):
Active and inactive are the calls of the source. No cut-off for these calls is given here.

What was measured:
HT-29 = test: Anti-necroptosis activity against TSZ-induced human HT-29 cells; assay type: functional, cell-based
U-937 = test: Anti-necroptosis activity against TSZ-induced human U-937 cells; assay type: functional, cell-based
L929 = test: Anti-necroptosis activity against TSZ-induced mouse L929 cells; assay type: functional, cell-based
Mus musculus = test: In vivo anti-necrotptic activity in SIRS mouse model assessed as protection from body temperature loss at 10 mg/kg, po measured upto 6 hrs; assay type: functional, organism-based
[1] = molecular target: T1, Receptor-interacting serine/threonine-protein kinase 1 (Homo sapiens, UniProt Q13546); test: Inhibition of RIPK1 (unknown origin) in presence of ATP by kinaseProfiler assay
T1 sequence (Q13546 whole entry): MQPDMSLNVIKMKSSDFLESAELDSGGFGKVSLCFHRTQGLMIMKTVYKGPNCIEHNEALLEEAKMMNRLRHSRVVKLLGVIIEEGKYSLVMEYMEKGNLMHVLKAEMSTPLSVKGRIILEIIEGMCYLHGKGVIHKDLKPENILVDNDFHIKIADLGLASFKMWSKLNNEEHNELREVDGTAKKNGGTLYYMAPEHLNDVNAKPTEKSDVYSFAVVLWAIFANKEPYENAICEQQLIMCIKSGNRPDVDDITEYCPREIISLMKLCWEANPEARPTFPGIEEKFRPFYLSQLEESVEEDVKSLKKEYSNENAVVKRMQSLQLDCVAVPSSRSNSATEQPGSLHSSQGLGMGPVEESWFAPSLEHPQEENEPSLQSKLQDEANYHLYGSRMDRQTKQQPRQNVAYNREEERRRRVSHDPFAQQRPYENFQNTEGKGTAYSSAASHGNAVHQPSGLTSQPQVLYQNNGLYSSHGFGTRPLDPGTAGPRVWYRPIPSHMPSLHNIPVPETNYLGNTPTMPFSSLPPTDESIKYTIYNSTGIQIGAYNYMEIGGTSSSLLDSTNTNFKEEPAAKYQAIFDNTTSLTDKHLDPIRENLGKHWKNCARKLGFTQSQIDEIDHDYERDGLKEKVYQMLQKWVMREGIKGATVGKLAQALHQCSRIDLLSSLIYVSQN

[2] = Metabolic stability in cryopreserved human liver microsome assessed as half life; assay type: ADME; conditions: cryopreserved liver microsomes
[3] = Oral bioavailability in BALB/c mouse at 10 mg/kg; assay type: ADME, organism-based; conditions: BALB/c, in vivo

CN1C(=O)[C@@H](NC(=O)c2n[nH]c(Cc3ccccc3)n2)COc2ccccc21 [GSK2982772] gave an EC50 (HT-29) of 2.78 nM, an EC50 (U-937) of 1.27 nM and an EC50 (L929) of 1260 nM. The Activity (Mus musculus) was “Active”.

Molecule Nc1n[nH]c(=O)c2c1c(-c1ccc3c(c1)CCN3C(=O)Cc1cccc(OC(F)(F)F)c1)nn2Cc1ccccc1 has an EC50 (HT-29) of 108 nM, an EC50 (U-937) of 117 nM and an IC50 [1] of 149 nM. For the same molecule, the half-life [2] was 28.2 min and the EC50 (L929) was 14.3 nM.

Work on CCCn1nc(-c2ccc3c(c2)CCN3C(=O)Cc2cccc(OC(F)(F)F)c2)c2c(N)n[nH]c(=O)c21 yielded an EC50 (HT-29) of 6.84 nM, an EC50 (U-937) of 0.46 nM and an IC50 [1] of 120 nM. It also gave a half-life [2] of 21.1 min and an EC50 (L929) of 1.42 nM.

CC(C)Cn1nc(-c2ccc3c(c2)CCN3C(=O)Cc2cccc(OC(F)(F)F)c2)c2c(N)n[nH]c(=O)c21 showed an EC50 (HT-29) of 6.19 nM, an EC50 (U-937) of 9.75 nM and an IC50 [1] of 133 nM. It also gave a half-life [2] of 18.1 min and an EC50 (L929) of 1.36 nM.

Work on Nc1n[nH]c(=O)c2c1c(-c1ccc3c(c1)CCN3C(=O)Cc1cccc(OC(F)(F)F)c1)cn2CC1CC1 yielded an EC50 (HT-29) of 5.78 nM, an EC50 (U-937) of 3.68 nM and an IC50 [1] of 109 nM. It also gave a half-life [2] of over 120 min and an EC50 (L929) of 1.62 nM.

In the case of CC(C)n1nc(-c2ccc3c(c2)CCN3C(=O)Cc2cccc(OC(F)(F)F)c2)c2c(N)n[nH]c(=O)c21, the EC50 (HT-29) is reported as 7.73 nM, the EC50 (U-937) is reported as 17.3 nM and the IC50 [1] is reported as 66.1 nM. It also gave a half-life [2] of 26.8 min and an EC50 (L929) of 1.47 nM.

With Nc1n[nH]c(=O)c2c1c(-c1ccc3c(c1)CCN3C(=O)Cc1cccc(OC(F)(F)F)c1)nn2CC(F)F the EC50 (HT-29) was 16 nM, the EC50 (U-937) was 14.6 nM and the IC50 [1] was 84.5 nM. It also gave a half-life [2] of 31.9 min and an EC50 (L929) of 9.84 nM.

Work on CC1(Cn2nc(-c3ccc4c(c3)CCN4C(=O)Cc3cccc(OC(F)(F)F)c3)c3c(N)n[nH]c(=O)c32)CC1 yielded an EC50 (HT-29) of 37.5 nM, an EC50 (U-937) of 10.2 nM and an IC50 [1] of 98.7 nM. For the same molecule, the half-life [2] was 26.4 min and the EC50 (L929) was 13.2 nM.

Molecule CCCCn1nc(-c2ccc3c(c2)CCN3C(=O)Cc2cccc(OC(F)(F)F)c2)c2c(N)n[nH]c(=O)c21 has an EC50 (HT-29) of 8.23 nM, an EC50 (U-937) of 15.5 nM and an IC50 [1] of 105 nM. It also gave a half-life [2] of 18.3 min and an EC50 (L929) of 1.2 nM.

Molecule CC1(Cn2nc(-c3ccc4c(c3)CCN4C(=O)Cc3cccc(OC(F)(F)F)c3)c3c(N)n[nH]c(=O)c32)COC1 has an EC50 (HT-29) of 5.57 nM, an EC50 (U-937) of 3.9 nM and an IC50 [1] of 79.8 nM. The half-life [2] was 13.2 min and the EC50 (L929) was 1.85 nM.

With CCn1nc(-c2ccc3c(c2)CCN3C(=O)Cc2cccc(OC(F)(F)F)c2)c2c(N)n[nH]c(=O)c21 the bioavailability [3] was 4.36%, the EC50 (HT-29) was 16.1 nM and the EC50 (U-937) was 4.45 nM. For the same molecule, the IC50 [1] was 42.7 nM, the half-life [2] was over 120 min and the EC50 (L929) was 9.79 nM.

For Nc1n[nH]c(=O)c2c1c(-c1ccc3c(c1)CCN3C(=O)Cc1cccc(OC(F)(F)F)c1)nn2CCC1CNC1, the EC50 (HT-29) was over 1000 nM, the EC50 (U-937) was over 1000 nM and the IC50 [1] was over 1000 nM. The half-life [2] was 100 min and the EC50 (L929) was 366 nM.

In the case of COCCn1nc(-c2ccc3c(c2)CCN3C(=O)Cc2cccc(OC(F)(F)F)c2)c2c(N)n[nH]c(=O)c21, the EC50 (HT-29) is reported as 4.45 nM, the EC50 (U-937) is reported as 8.29 nM and the IC50 [1] is reported as 80.5 nM. For the same molecule, the half-life [2] was 17.8 min and the EC50 (L929) was 1.08 nM.

In the case of CCn1cc(-c2ccc3c(c2)CCN3C(=O)Cc2cccc(OC(F)(F)F)c2)c2c(N)n[nH]c(=O)c21, the EC50 (HT-29) is reported as 5.45 nM, the EC50 (U-937) is reported as 1.74 nM and the IC50 [1] is reported as 60.5 nM. It also gave a half-life [2] of 66.6 min and an EC50 (L929) of 5.99 nM.

In the case of Nc1n[nH]c(=O)c2c1c(-c1ccc3c(c1)CCN3C(=O)Cc1cccc(OC(F)(F)F)c1)nn2CC1CCCC1, the EC50 (HT-29) is reported as 15.7 nM, the EC50 (U-937) is reported as 12.7 nM and the IC50 [1] is reported as 95.9 nM. The half-life [2] was 49.9 min and the EC50 (L929) was 3.95 nM.
